Where two headings read alike, the source gives them in different places.
Tests used:
P. aeruginosa = assay: MIC, broth microdilution, CDC/FDA Antibiotic Resistance Isolate Bank (Example 7, Tables 10, 15); assay type: cell-based; conditions: Pseudomonas aeruginosa, read-out: MIC
A. baumannii = assay: MIC, broth microdilution, CDC/FDA Antibiotic Resistance Isolate Bank (Example 7, Tables 9, 13, 14); assay type: cell-based, Acinetobacter baumannii; conditions: for MIC: read-out: MIC
[1] = MIC distribution, metallo-β-lactamase-producing A. baumannii, inhibitor µg/mL in parentheses

NCC[C@H](O)C(=O)N[C@@H]1C[C@H](N)[C@@H](O[C@H]2O[C@H](CN)[C@@H](O)[C@H](O)[C@H]2O)[C@H](O)[C@H]1O[C@H]1O[C@H](CO)[C@@H](O)[C@H](N)[C@H]1O [Amikacin, amikacin]
2 µg/mL: MIC (P. aeruginosa; P. aeruginosa KUB No. 5800, AR Bank # 457) | MIC (A. baumannii; Acinetobacter baumannii, A. baumannii KUB No. 5714, AR Bank #281, OXA-82) | MIC (A. baumannii; Acinetobacter baumannii, KUB No. 5728, AR Bank #295) | MIC (A. baumannii; Acinetobacter baumannii, KUB No. 5746, AR Bank #313)
0.0005 µg/mL: MIC (P. aeruginosa; P. aeruginosa KUB No. 5832, AR Bank # 527)
0.064 µg/mL: MIC (P. aeruginosa; P. aeruginosa KUB No. 5813, AR Bank # 508)
2: Number of isolates at MIC 2 µg/mL (A. baumannii; [1])
0.004 µg/mL: MIC (P. aeruginosa; P. aeruginosa KUB No. 5816, AR Bank # 511) | MIC (P. aeruginosa; P. aeruginosa KUB No. 5817, AR Bank # 512) | MIC (P. aeruginosa; P. aeruginosa KUB No. 5819, AR Bank # 514) | MIC (P. aeruginosa; P. aeruginosa KUB No. 5831, AR Bank # 526) | MIC (P. aeruginosa; P. aeruginosa KUB No. 5834, AR Bank # 529)
0.008 µg/mL: MIC (P. aeruginosa; P. aeruginosa KUB No. 5815, AR Bank # 510) | MIC (P. aeruginosa; P. aeruginosa KUB No. 5820, AR Bank # 515) | MIC (P. aeruginosa; P. aeruginosa KUB No. 5833, AR Bank # 528)
0.032 µg/mL: MIC (P. aeruginosa; P. aeruginosa KUB No. 5818, AR Bank # 513)
> 0.064 µg/mL: MIC (P. aeruginosa; P. aeruginosa KUB No. 5814, AR Bank # 509)
0.002 µg/mL: MIC (P. aeruginosa; P. aeruginosa KUB No. 5821, AR Bank # 516)
4 µg/mL: MIC (P. aeruginosa; P. aeruginosa KUB No. 5804, AR Bank # 862) | MIC (A. baumannii; Acinetobacter baumannii, A. baumannii KUB No. 5713, AR Bank #280, OXA-66)
64 µg/mL: MIC (A. baumannii; Acinetobacter baumannii, A. baumannii KUB No. 5598, AR Bank #101, OXA-24, OXA-65) | MIC (A. baumannii; Acinetobacter baumannii, A. baumannii KUB No. 5709, AR Bank #276, no carbapenemase genes (-)) | MIC (A. baumannii; Acinetobacter baumannii, A. baumannii KUB No. 5718, AR Bank #285, OXA-24, OXA-65) | MIC (A. baumannii; Acinetobacter baumannii, KUB No. 5720, AR Bank #287) | MIC (A. baumannii; Acinetobacter baumannii, KUB No. 5727, AR Bank #294) | MIC (A. baumannii; Acinetobacter baumannii, KUB No. 5734, AR Bank #301) | MIC (A. baumannii; Acinetobacter baumannii, KUB No. 5739, AR Bank #306) | MIC50 (A. baumannii; Acinetobacter baumannii, 55 isolates of A. baumannii, read-out: MIC50)
0.5 µg/mL: MIC (P. aeruginosa; P. aeruginosa KUB No. 5806, AR Bank # 864)
16 µg/mL: MIC (P. aeruginosa; P. aeruginosa KUB No. 5801, AR Bank # 458) | MIC (A. baumannii; Acinetobacter baumannii, A. baumannii KUB No. 5707, AR Bank #274, OXA-66, OXA-72) | MIC (A. baumannii; Acinetobacter baumannii, A. baumannii KUB No. 5710, AR Bank #277, OXA-24, OXA-65) | MIC (A. baumannii; Acinetobacter baumannii, KUB No. 5726, AR Bank #293)
0.25 µg/mL: MIC (P. aeruginosa; P. aeruginosa KUB No. 5798, AR Bank # 455)
1: Number of isolates at MIC 32 µg/mL (A. baumannii; [1]) | Number of isolates at MIC >64 µg/mL (A. baumannii; [1])
8 µg/mL: MIC (P. aeruginosa; P. aeruginosa KUB No. 5793, AR Bank # 449) | MIC (P. aeruginosa; P. aeruginosa KUB No. 5799, AR Bank # 456) | MIC (P. aeruginosa; P. aeruginosa KUB No. 5802, AR Bank # 459)
32 µg/mL: MIC (A. baumannii; Acinetobacter baumannii, A. baumannii KUB No. 5575, AR Bank #78, OXA-71) | MIC (A. baumannii; Acinetobacter baumannii, A. baumannii KUB No. 5585, AR Bank #88, OXA-64, NDM-1) | MIC (A. baumannii; Acinetobacter baumannii, A. baumannii KUB No. 5717, AR Bank #284, OXA-24, OXA-65) | MIC (A. baumannii; Acinetobacter baumannii, KUB No. 5722, AR Bank #259) | MIC (A. baumannii; Acinetobacter baumannii, KUB No. 5725, AR Bank #292) | MIC (A. baumannii; Acinetobacter baumannii, KUB No. 5730, AR Bank #297) | MIC (A. baumannii; Acinetobacter baumannii, KUB No. 5737, AR Bank #304) | MIC (A. baumannii; Acinetobacter baumannii, KUB No. 5738, AR Bank #305)
1 µg/mL: MIC (A. baumannii; Acinetobacter baumannii, A. baumannii KUB No. 5567, AR Bank #70, OXA-58, OXA-100) | MIC (A. baumannii; Acinetobacter baumannii, KUB No. 5745, AR Bank #312)
0.016 µg/mL: MIC (P. aeruginosa; P. aeruginosa KUB No. 5823, AR Bank # 518)
> 64 µg/mL: MIC (P. aeruginosa; P. aeruginosa KUB No. 5805, AR Bank # 863) | MIC (A. baumannii; Acinetobacter baumannii, A. baumannii KUB No. 5580, AR Bank #83, OXA-23, OXA-69, NDM-1) | MIC (A. baumannii; Acinetobacter baumannii, A. baumannii KUB No. 5599, AR Bank #102, OXA-66) | MIC (A. baumannii; Acinetobacter baumannii, A. baumannii KUB No. 5706, AR Bank #273, OXA-23, OXA-66) | MIC (A. baumannii; Acinetobacter baumannii, A. baumannii KUB No. 5708, AR Bank #275, OXA-23, OXA-66) | MIC (A. baumannii; Acinetobacter baumannii, A. baumannii KUB No. 5711, AR Bank #278, OXA-23, OXA-66) | MIC (A. baumannii; Acinetobacter baumannii, A. baumannii KUB No. 5712, AR Bank #279, OXA-23, OXA-66) | MIC (A. baumannii; Acinetobacter baumannii, A. baumannii KUB No. 5715, AR Bank #282, OXA-23, OXA-66) | MIC (A. baumannii; Acinetobacter baumannii, A. baumannii KUB No. 5716, AR Bank #283, OXA-23, OXA-66) | MIC (A. baumannii; Acinetobacter baumannii, KUB No. 5719, AR Bank #286) | MIC (A. baumannii; Acinetobacter baumannii, KUB No. 5721, AR Bank #288) | MIC (A. baumannii; Acinetobacter baumannii, KUB No. 5723, AR Bank #290) | MIC (A. baumannii; Acinetobacter baumannii, KUB No. 5724, AR Bank #291) | MIC (A. baumannii; Acinetobacter baumannii, KUB No. 5729, AR Bank #296) | MIC (A. baumannii; Acinetobacter baumannii, KUB No. 5731, AR Bank #298) | MIC (A. baumannii; Acinetobacter baumannii, KUB No. 5732, AR Bank #299) | MIC (A. baumannii; Acinetobacter baumannii, KUB No. 5733, AR Bank #300) | MIC (A. baumannii; Acinetobacter baumannii, KUB No. 5735, AR Bank #302) | MIC (A. baumannii; Acinetobacter baumannii, KUB No. 5736, AR Bank #303) | MIC (A. baumannii; Acinetobacter baumannii, KUB No. 5740, AR Bank #307) | MIC (A. baumannii; Acinetobacter baumannii, KUB No. 5741, AR Bank #308) | MIC (A. baumannii; Acinetobacter baumannii, KUB No. 5742, AR Bank #309) | MIC (A. baumannii; Acinetobacter baumannii, KUB No. 5743, AR Bank #310) | MIC (A. baumannii; Acinetobacter baumannii, KUB No. 5744, AR Bank #311) | MIC80 (A. baumannii; Acinetobacter baumannii, 55 isolates of A. baumannii, read-out: MIC80) | MIC90 (A. baumannii; Acinetobacter baumannii, 55 isolates of A. baumannii, read-out: MIC90)

Reference: patent EP4635500A1, “THERAPEUTIC AGENT FOR BACTERIAL INFECTION” (Sumitomo Pharma Co., Ltd., priority 2022, dated 2024)
